This is an account of results in patent US6562808B1, “5,11-dihydrodibenzo[b,e][1,4]oxazepine derivatives and pharmaceutical composition containing the same” (Ajinomoto Co., Inc., priority 1997, dated 2003).

The structures appear in SMILES notation.

Series [1] deals with calcium channel (blood vessel, thoracic aortae) (Rattus norvegicus, UniProt P22002). The series is described as follows: In vitro calcium channel-antagonistic effect (blood vessel): inhibition of high potassium contraction of thoracic aorta spiral samples. It is filed as cell-based, rat (male Crj:CD). The following applies: 30 minute pretreatment; for inhibition at 0.1 µM: high potassium (45.0 mM KCl) contraction, 10^−7 M test compound, read-out: Inhibition rate (%) (conc.: 10^−7M). Here is the method: In Vitro Calcium Channel-antagonistic Effect (Blood Vessel):
The thoracic aortae were taken out of male Crj:CD rats (8-12 weeks old) and spiral samples were prepared from them. The blood vessel samples were suspended in Tyrode's solution in which a mixed gas (95% of oxygen and 5% of carbon dioxide) was introduced at 37° C. As for the change in tension of each blood vessel, the isometry was recorded on an ink writing recorder through a transducer. The high potassium contraction was caused by changing the nutritive solution from the Tyrode's solution to a potassium-Tyrode's solution (94.6 mM of NaCl, 45.0 mM of KCl, 1.8 mM of CaCl2, 1.04 mM of MgCl2, 0.4 mM of NaH2PO4, 11.9 mM of NaHCO3, and 5.55 mM of glucose). The high potassium contraction-inhibiting effect of the test compound was determined by 30 minute pretreatment. Compound A described in European Patent No. 0404359A1 was used as a comparative substance. The results of the determination of the calcium channel antagonistic activity were given in terms of the rate of inhibition of the high calcium contraction with 10^−7 M of the test compound. In Table 1, “−” means not determined.

Series [2] is described as follows: Determination of solubility in neutral buffer solution. It is filed as physicochemical. The settings on record: aqueous buffer, thermodynamic from solid; 0.15 M phosphate buffer pH 7.2, room temperature, left overnight, supernatant by HPLC. Here is the method: Determination of Solubility:
A test compound was suspended in 0.15 M phosphate buffer solution having pH of 7.2 at room temperature. The obtained suspension was vigorously shaken and then left to stand overnight. The insoluble compound was removed by centrifugation, and the concentration of the compound in the supernatant was determined by the high-performance liquid chromatography.

Series [3] addresses calcium channel (ileum) (Rattus norvegicus, UniProt P22002). The experiment in a line: In vitro calcium channel-antagonistic effect (ileum): inhibition of high potassium contraction of ileum samples. It is filed as cell-based, rat (male Crj:CD). The settings on record: 30 minute pretreatment; for inhibition at 0.1 µM: high potassium (45.0 mM KCl) contraction, 10^−7 M test compound, read-out: Inhibition rate (%) (conc.: 10^−7M). Here is the method: In Vitro Calcium Channel-antagonistic Effect (Ileum):
The ileum was taken out of male Crj:CD rats (8-12 weeks old) at a position of 3 cm distant from the ileocecal region. The ileum samples were suspended in Tyrode's solution in which a mixed gas (95% of oxygen and 5% of carbon dioxide) was introduced at 37° C. As for the change in tension of the ileum, the isometry was recorded on a ink writing recorder through a transducer. The high potassium contraction was caused by changing the nutritive solution from the Tyrode's solution to a potassium-Tyrode's solution (94.6 mM of NaCl, 45.0 mM of KCl, 1.8 mM of CaCl2, 1.04 mM of MgCl2, 0.4 mM of NaH2PO4, 11.9 mM of NaHCO3, and 5.55 mM of glucose). The high potassium contraction-inhibiting effect of the test compound was determined by 30 minute pretreatment. Compound A described in European Patent No. 0404359A1 was used as a comparative substance. The results of the determination of the calcium channel antagonistic activity were given in terms of the rate of inhibition of the high calcium contraction with 10^−7 M of the test compound. In Table 2, “−” means not determined.

calcium channel (blood vessel, thoracic aortae), sequence (P22002 whole entry): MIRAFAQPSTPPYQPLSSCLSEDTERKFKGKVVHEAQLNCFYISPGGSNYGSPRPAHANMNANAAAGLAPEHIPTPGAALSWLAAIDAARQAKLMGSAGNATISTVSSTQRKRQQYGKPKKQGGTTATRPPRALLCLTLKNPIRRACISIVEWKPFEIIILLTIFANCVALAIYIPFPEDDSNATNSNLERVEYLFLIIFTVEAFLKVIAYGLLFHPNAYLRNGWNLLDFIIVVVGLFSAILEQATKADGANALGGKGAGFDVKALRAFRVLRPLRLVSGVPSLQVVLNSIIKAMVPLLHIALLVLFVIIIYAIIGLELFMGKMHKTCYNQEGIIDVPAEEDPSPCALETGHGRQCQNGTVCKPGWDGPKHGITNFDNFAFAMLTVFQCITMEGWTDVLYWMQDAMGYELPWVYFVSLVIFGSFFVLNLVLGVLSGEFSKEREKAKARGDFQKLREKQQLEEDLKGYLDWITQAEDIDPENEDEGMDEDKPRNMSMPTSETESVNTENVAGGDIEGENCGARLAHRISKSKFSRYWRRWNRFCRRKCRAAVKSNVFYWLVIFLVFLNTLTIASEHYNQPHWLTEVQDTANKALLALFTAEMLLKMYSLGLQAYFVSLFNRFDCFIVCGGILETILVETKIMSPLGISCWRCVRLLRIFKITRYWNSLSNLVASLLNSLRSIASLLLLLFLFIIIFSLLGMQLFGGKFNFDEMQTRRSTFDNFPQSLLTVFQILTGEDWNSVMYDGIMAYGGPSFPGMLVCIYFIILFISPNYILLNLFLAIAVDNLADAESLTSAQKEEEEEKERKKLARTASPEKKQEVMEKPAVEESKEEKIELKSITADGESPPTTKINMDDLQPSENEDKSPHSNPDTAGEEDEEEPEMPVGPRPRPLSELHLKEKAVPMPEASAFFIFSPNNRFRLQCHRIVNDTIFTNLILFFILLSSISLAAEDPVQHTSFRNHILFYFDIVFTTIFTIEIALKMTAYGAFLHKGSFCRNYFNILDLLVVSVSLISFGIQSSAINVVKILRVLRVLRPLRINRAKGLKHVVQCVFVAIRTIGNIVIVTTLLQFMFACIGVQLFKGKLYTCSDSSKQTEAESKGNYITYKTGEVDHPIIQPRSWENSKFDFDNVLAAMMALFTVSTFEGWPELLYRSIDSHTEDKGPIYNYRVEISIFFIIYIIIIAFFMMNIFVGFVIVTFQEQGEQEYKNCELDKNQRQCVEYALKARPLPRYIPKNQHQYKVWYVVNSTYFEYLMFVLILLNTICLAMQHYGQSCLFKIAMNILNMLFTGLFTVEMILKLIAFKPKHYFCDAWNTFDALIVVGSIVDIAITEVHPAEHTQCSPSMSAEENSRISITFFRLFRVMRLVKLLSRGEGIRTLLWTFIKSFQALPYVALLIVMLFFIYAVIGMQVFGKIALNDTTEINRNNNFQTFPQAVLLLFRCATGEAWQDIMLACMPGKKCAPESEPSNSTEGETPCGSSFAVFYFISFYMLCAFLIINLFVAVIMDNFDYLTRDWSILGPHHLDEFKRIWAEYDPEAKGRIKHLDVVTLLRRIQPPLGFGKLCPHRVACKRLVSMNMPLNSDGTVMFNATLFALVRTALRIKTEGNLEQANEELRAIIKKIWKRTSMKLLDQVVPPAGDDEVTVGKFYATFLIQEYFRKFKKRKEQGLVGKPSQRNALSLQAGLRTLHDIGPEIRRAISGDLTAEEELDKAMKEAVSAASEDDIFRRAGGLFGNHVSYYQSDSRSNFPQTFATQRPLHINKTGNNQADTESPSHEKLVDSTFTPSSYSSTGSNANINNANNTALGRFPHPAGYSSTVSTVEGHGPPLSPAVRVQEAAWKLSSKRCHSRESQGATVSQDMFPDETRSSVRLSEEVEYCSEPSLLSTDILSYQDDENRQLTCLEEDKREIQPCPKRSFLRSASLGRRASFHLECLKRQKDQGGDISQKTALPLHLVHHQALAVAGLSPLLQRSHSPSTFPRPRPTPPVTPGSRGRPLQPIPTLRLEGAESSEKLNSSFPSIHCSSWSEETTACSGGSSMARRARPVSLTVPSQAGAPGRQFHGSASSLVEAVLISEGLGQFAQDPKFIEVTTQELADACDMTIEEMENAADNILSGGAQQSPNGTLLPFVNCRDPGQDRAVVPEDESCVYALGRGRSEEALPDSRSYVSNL
calcium channel (ileum), sequence (P22002 whole entry): as above

In turn, `Cl.Cl.Nc1ccc(CCN2CCC[C@@H]2CN2c3ccccc3COc3ccccc32)cc1` returned a melting point of 176 to 180 °C.

Turning to `CNc1cccc(CCN2CCC[C@@H]2CN2c3ccccc3COc3ccccc32)c1.Cl.Cl` [Example 14, (R)-5,11-Dihydro-5-[1-[2-(3-methylaminophenyl)ethyl]-2-pyrrolidinylmethyl]dibenzo[b,e][1,4]oxazepine Dihydrochloride], the melting point is 179 to 181 °C. Further, the inhibition at 0.1 µM in series [1] stood at 41%. Besides, the solubility in series [2] was 56 µg/mL. The inhibition at 0.1 µM in series [3] was found to be 76%.

On to `COc1ccc(CCN2CCC[C@@H]2CN2c3ccccc3COc3ccccc32)cc1N(C)C.Cl.Cl`, for which the melting point fell in the range of 141 to 144 °C.

As for `COc1ccc(CCN2CCCC2CN2c3ccccc3CSc3ccccc32)cc1.O=C(O)/C=C\C(=O)O` (stereo not drawn) [Compound A, reference compound], the IC50 in series [1] (high potassium contraction, read-out: IC50 (nM), concentration for 50% contraction inhibition) was 530 nM; in series [3] (high potassium contraction, read-out: IC50(nM), concentration for 50% contraction inhibition), 120 nM. Moreover, the solubility in series [2] stood at 13 µg/mL.

`COc1ccc(OCCN2CCC[C@@H]2CN2c3ccccc3COc3ccccc32)cc1.Cl` gave a melting point of 186 to 191 °C.

`CNc1ccc(CCN2CCC[C@@H]2CN2c3ccccc3COc3ccccc32)cc1.Cl.Cl` [Example 8, (R)-5,11-Dihydro-5-[1-[2-(4-methylaminophenyl)ethyl]-2-pyrrolidinylmethyl]dibenzo[b,e][1,4]oxazepine Dihydrochloride] yielded a melting point of 134 to 137 °C. In series [2], the solubility is 116 µg/mL.

Turning to `CN(C)c1cccc(CCN2CCC[C@@H]2CN2c3ccccc3COc3ccccc32)c1.Cl.Cl` [Example 10, (R)-5,11-Dihydro-5-[1-[2-(3-dimethylaminophenyl)ethyl]-2-pyrrolidinylmethyl]dibenzo[b,e][1,4]oxazepine Dihydrochloride], the melting point lay within 125 to 128 °C. For the same compound, in series [1], the inhibition at 0.1 µM was found to be 51%. The compound also showed a solubility in series [2] of 30 µg/mL. The inhibition at 0.1 µM in series [3] is 87%.

`Cl.O[C@H](CCN1CCC[C@@H]1CN1c2ccccc2COc2ccccc21)c1ccccc1` displayed a melting point of 179 to 182 °C.

`CCN(CC)c1ccc(CCN2CCC[C@@H]2CN2c3ccccc3COc3ccccc32)cc1.Cl.Cl` [Example 6, (R)-5,11-Dihydro-5-[1-[2-(4-diethylaminophenyl)ethyl]-2-pyrrolidinylmethyl]dibenzo[b,e][1,4]oxazepine Dihydrochloride] returned a melting point of 143 to 146 °C. Moreover, the inhibition at 0.1 µM in series [1] came out at 24%. Further, the solubility in series [2] turned out to be 638 µg/mL. The inhibition at 0.1 µM in series [3] amounted to 51%.

Regarding `CN(C)c1cccc(CCN2CCC[C@@H]2CN2c3ccccc3COc3ccccc32)c1.Cl.Cl` [Example 19, (R)-5,11-Dihydro-5-[1-[2-(3-dimethylaminophenyl)ethyl]2-pyrrolidinylmethyl)dibenzo[b,e][1,4]oxazepine Dihydrochloride], the melting point fell in the range of 170 to 172 °C.

In the case of `Cl.O[C@@H](CCN1CCC[C@@H]1CN1c2ccccc2COc2ccccc21)c1ccccc1`, the melting point fell in the range of 149 to 150 °C.

Regarding `CN(C)c1ccc(CCN2CCC[C@@H]2CN2c3ccccc3COc3ccccc32)cc1.Cl.Cl` [Example 2, (R)-5,11-Dihydro-5-[1-[2-(4-dimethylaminophenyl)ethyl]-2-pyrrolidinylmethyl]dibenzo[b,e][1,4]oxazepine Dihydrochloride], the melting point lay within 164 to 169 °C. The inhibition at 0.1 µM in series [1] is 12%. Besides, the solubility in series [2] was 36 µg/mL. In addition, in series [3], the inhibition at 0.1 µM is 62%.

`CN(C)c1cccc(CCCN2CCC[C@@H]2CN2c3ccccc3COc3ccccc32)c1.Cl.Cl` [Example 38, (R)-5,11-Dihydro-5-[1-[3-(3-dimethylaminophenyl)propane-1-yl]-2-pyrrolidinylmethyl]dibenzo[b,e][1,4]oxazepine Dihydrochloride] returned a melting point of 120 to 123 °C. In addition, the inhibition at 0.1 µM in series [1] amounted to 25%. The compound further gave a solubility in series [2] of 41 µg/mL. In series [3], the inhibition at 0.1 µM stood at 52%.

Compound `Cl.Cl.Nc1cccc(CCN2CCC[C@@H]2CN2c3ccccc3COc3ccccc32)c1` [Example 13, (R)-5,11-Dihydro-5-[1-[2-(3-aminophenyl)ethyl]-2-pyrrolidinylmethyl]dibenzo[b,e][1,4]oxazepine Dihydrochloride] gave a melting point of 149 to 152 °C. In series [2], this compound registered a solubility of 418 µg/mL.

For `COc1ccc(C=CCN2CCC[C@@H]2CN2c3ccccc3COc3ccccc32)cc1.Cl`, the melting point is 120 to 122 °C.

With `COc1ccc(CCCN2CCC[C@@H]2CN2c3ccccc3COc3ccccc32)cc1.Cl` [Example 24, (R)-5,11-Dihydro-5-[1-[3-(4-methoxyphenyl)propane-1-yl]-2-pyrrolidinylmethyl]dibenzo[b,e][1,4]oxazepine Hydrochloride], the melting point fell in the range of 172 to 174 °C. Besides, in series [1], the inhibition at 0.1 µM stood at 31%. Moreover, in series [2], the solubility amounted to 49 µg/mL. The inhibition at 0.1 µM in series [3] was found to be 67%.

In the case of `Cl.Cl.Nc1ccccc1CCN1CCC[C@@H]1CN1c2ccccc2COc2ccccc21`, the melting point was in the range of 168 to 172 °C.
